In US8138338B2, “Aurora kinase inhibitors from an encoded small molecule library” (GlaxoSmithKline LLC, priority 2006, dated 2012):

test system: secretion of TNF-α from LPS-stimulated human monocytes; test: LPS-induced TNF-alpha production in human THP-1 cell line; type: cell-based; conditions: LPS-stimulated human monocytes (THP-1), 4 hr; read-out: EC50 for inhibition of TNF-α secretion
Experimental: THP-1 (human, monocytic) cell line was purchased from the American Type Culture Collection (ATCC, Cat. No. TIB 202). Cell line was passaged three times per week in RPMI 1640 (GIBCO), supplemented with 10% heat-inactivated fetal bovine serum (FBS; Omega Scientific, Tarzana, Calif.), 2 mM L-glutamine, 100 U/ml penicillin and 100 μg/ml streptomycin (Gibco/Invitrogen, Carlsbad, Calif.) in a humidified incubator with 95% air and 5% CO2 at 37° C.
For the assay THP-1 cells were harvested, counted and suspended at 1E6 cells/ml in culture medium. […] of cell suspension was added to each well at 96 well plates to provide density of 2×10^5 cells per well. Serial dilutions of P38 compounds were prepared at final concentrations in culture medium from a 10 mM stock solution, and assayed in triplicate. Vehicle was prepared by adjusting culture medium to 0.1% v/v DMSO which corresponds to the concentration of DMSO in the wells with test compounds.
Cells were incubated in presence of the P38 inhibitor for 30 min. After that cells were stimulated with LPS (E. coli 026:B6, 1 μg/ml) for 4 hr at 37° C. in a 5% CO2-incubator. Reaction was stopped by placing samples on ice and centrifuging for 10 min at 1500×g at 4° C. Cell supernatants were harvested and concentration of TNF- was determined by ELISA (BD Pharmingen, San Diego, Calif., Cat. No. 555212), following the manufacturer's instruction. Absorbance read and analyzed at 450 nm on a spectrophotometric ELISA plate reader (Labsystems Multiskan MCC/340). Replicate readings were averaged and the results are expressed as a percent of OD signal from control.

| EC50 [µM] | SMILES |
| --- | --- |
| 0.022 | CONC(=O)c1ccc(C)c(Nc2nc(NCC3CCCC(CN)C3)nc(NC3CCCCC3C)n2)c1 (stereo not shown) [Compound 10] |
| 0.011 | CONC(=O)c1ccc(C)c(Nc2nc(NCC3CCCC(CN)C3)nc(NC3CCCCC3)n2)c1 (stereo not shown) [Compound 11] |
| 0.122 | CONC(=O)c1ccc(C)c(Nc2nc(NCc3cccc(C)c3)nc(N[C@H](C)C(C)(C)C)n2)c1 [Compound 12] |

test system: HCT116 (human colorectal cancer cells); test: Cell proliferation assay (MTT) using HCT-116 cell line; type: cell-based; conditions: 72 h, human carcinoma cell line HCT-116, three days
Experimental: Cell proliferation assay for Aurora-A compounds using HCT-116 Cell Line HCT116 (human colorectal cancer cells) was obtained from the American Type Culture Collection (Cat. No. CCL-247, Rockville, Md.). Cells were maintained in monolayer culture in McCoy's 5A supplemented with 10% fetal bovine serum (FBS; Omega Scientific, Tarzana, Calif.), 2 mM L-glutamine, 50 IU/ml penicillin and 50 μg/ml streptomycin (Gibco/Invitrogen, Carlsbad, Calif.) in a humidified incubator with 95% air and 5% CO2 at 37° C.
A single cell suspension was prepared by trypsinization, to provide 1.25E4 cells per mL in their respective culture medium. 96 well plates were seeded with 200 μl/well of the cell suspension to provide an initial seeding density of 2500 cells per well. The plates were placed in a tissue culture incubator (5% CO2, 37° C.) overnight to let cells become adherent.
Serial dilutions of the testing compounds were prepared at final concentrations in culture medium from a 10 mM stock solution, and assayed in triplicate. The vehicle was prepared by adjusting culture medium to 0.1% v/v DMSO which corresponds to the concentration of DMSO in the wells with test compounds. Test plates were then placed in a tissue culture incubator (5% CO2, 37° C.) for three days after which the MTT assay was performed.
The MTT assay is a measure of cell viability based on cellular dehydrogenase enzymatic cleavage of the tetrazolium rings in MTT the product of which is measured spectrophotometrically. A 25 μL aliquot of 5 mg/mL MTT (3′[4,5-dimethylthiazol-2-yl]-2,5-diphenyl-tetrazolium bromide, Sigma Cat. No. M2128) prepared in PBS was added directly to the wells. The plates were incubated at 37° C. for two hours, the MTT solution was removed, 150 μL of isopropanol was added to each well, and the plates were rocked at room temperature for 10 minutes. The optical density of the wells was quantitated with a Labsystems Multiskan plate spectrophotometer at 570 nm. Replicate readings were averaged. The results are expressed as a percent of OD signal from control.

| EC50 [µM] | SMILES |
| --- | --- |
| 3.6 | CCCCN(C)c1nc(NCCc2ccccc2OC)nc(NC(Cc2c[nH]c3ncccc23)C(N)=O)n1 (stereo not shown) [Compound 1] |
| 3.6 | CCCCN(C)c1nc(NCCc2ccccc2OC)nc(NCCc2c[nH]c3ncccc23)n1 [Compound 2] |
| 10 | C=CCN(c1nc(NCCc2c[nH]c3ncccc23)nc(NCc2cccn2C)n1)C1CCCCC1 [Compound 3] |
| 10 | COc1ccc(Nc2nc(Nc3ccc4ncccc4c3)nc(NC(Cc3c[nH]c4ncccc34)C(N)=O)n2)cc1OC (stereo not shown) [Compound 7] |
